Test results from patent US5175168A, “Intermediates for 1,2-dideoxy-2-fluoronojirimycin” (Monsanto Company, priority 1991, dated 1992).

Assays:
Type in all cases: biochemical
[1] = molecular target: T1, yeast α-glucosidase (Saccharomyces cerevisiae, UniProt P53341); experiment: α-Glucosidase Inhibition Assay, pH 7.4; details: read-out: ALPHA GLUCOSIDASE inhibition; for inhibition at 1000 µM: @ 1 mM; for inhibition at 5000 µM: @ 5 mM
T1 construct: purchased Sigma
Experimental: (§1) The glycosidase inhibition activity is determined by modifying an assay procedure described in Evans et al, Phytochemistry, 22, pp. 768-770 (1983). More particularly, yeast α-glucosidase and almond β-glucosidase activities were measured by the Evans et al method which was modified by assaying activities at pH 7.4 in N-2-hydroxyethylpiperazine-N-2-ethane sulfonic acid (HEPES) buffer, measuring in 96 well microtiter plates, and including 10% DMSO in control and test samples.
(§2) The release of p-nitrophenol from the substrate p-nitrophenylglycoside was measured spectrophotometrically in the presence and absence of test compound. Each assay included a known inhibitor of the enzyme as a standard. IC50 values were determined for compounds which inhibited the enzymes more than 50& at a 1 millimolar concentration.
To 100 ul 50 mM HEPES buffer, pH 7.4, in a microtiter plate, 20 ul test compound in DMSO (DMSO alone in control)and 40 ul (0.013 units) yeast α-glucosidase (Sigma) in HEPES buffer were added and pre-incubated at room temperature 15 minutes. 40 ul 1.25 mM p-nitro-phenyl-α-D-glucopyranoside (Sigma) in HEPES buffer, as substrate was added and the absorbance change at 405 nm was monitored in a Biotek EIA Autoreader. Absorption change was measured at 15 to 25 minutes (reaction was linear for at least 30 minutes). Each sample was tested in triplicate. IC50 values were determined from the linear portion of the log concentration vs percent inhibition curve obtained from a minimum of 3 points. Deoxynojirimycin was used as standard inhibitor.

[2] = system: almond β-glucosidase; experiment: β-Glucosidase Inhibition Assay, pH 4.8
Experimental: as §1, §2
To 100 ul 50 mM sodium citrate buffer, pH 4.8, in a microtiter plate, 20 ul test compound in DMSO (DMSO alone in control) and 20 ul (0.017 units) β-glucosidase (Sigma) in citrate buffer were added and pre-incubated at room temperature 15 minutes. 20 ul 2.50 mM p-nitrophenyl-β-D-glucopyranside in citrate buffer was added as substrate and incubated at room temperature 20 minutes (reaction is linear for at least 30 minutes). 50 ul 0.4 M NaOH was added and the absorption change at 405 nm was determined utilizing a Biotek EIA Autoreader. Each sample was tested in triplioate. IC50 values were determined from the linear portion of the log concentration vs percent inhibition curve obtained from a minimum of 3 points. Castanospermine was used as standard inhibitor.

[3] = system: almond β-glucosidase; experiment: β-Glucosidase Inhibition Assay, pH 7.4
Experimental: as §1, §2
To 100 ul 50 mM HEPES buffer, pH 7.4, in a microtiter plate, 20 ul test compound in DMSO (DMSO alone in control) and 40 ul (0.136 units) β-glucosidase (Sigma) in HEPES buffer were added and pre-incubated at room temperature 15 minutes. 40 ul 1.25 mM p-nitrophenylβ-D-glucopyranoside in HEPES buffer was added as substrate and the absorbance change at 405 nm was monitored utilizing a Biotek EIA Autoreader. Absorption change was measured at 15 to 25 minutes (reaction is linear for at least 30 minutes). Each sample was tested in triplicate. IC50 values were determined from the linear portion of the log concentration vs percent inhibition curve obtained from a minimum of 3 points. Castanospermine was used as standard inhibitor.

[4] = molecular target: T2, ALPHA MANNOSIDASE (Canavalia ensiformis, UniProt C0HJB3); experiment: Alpha mannosidase inhibition, pH 4.5; details: for inhibition at 1000 µM: @ 1 mM; for inhibition at 5000 µM: @ 5 mM
T2 sequence (C0HJB3 1-562 limits assumed): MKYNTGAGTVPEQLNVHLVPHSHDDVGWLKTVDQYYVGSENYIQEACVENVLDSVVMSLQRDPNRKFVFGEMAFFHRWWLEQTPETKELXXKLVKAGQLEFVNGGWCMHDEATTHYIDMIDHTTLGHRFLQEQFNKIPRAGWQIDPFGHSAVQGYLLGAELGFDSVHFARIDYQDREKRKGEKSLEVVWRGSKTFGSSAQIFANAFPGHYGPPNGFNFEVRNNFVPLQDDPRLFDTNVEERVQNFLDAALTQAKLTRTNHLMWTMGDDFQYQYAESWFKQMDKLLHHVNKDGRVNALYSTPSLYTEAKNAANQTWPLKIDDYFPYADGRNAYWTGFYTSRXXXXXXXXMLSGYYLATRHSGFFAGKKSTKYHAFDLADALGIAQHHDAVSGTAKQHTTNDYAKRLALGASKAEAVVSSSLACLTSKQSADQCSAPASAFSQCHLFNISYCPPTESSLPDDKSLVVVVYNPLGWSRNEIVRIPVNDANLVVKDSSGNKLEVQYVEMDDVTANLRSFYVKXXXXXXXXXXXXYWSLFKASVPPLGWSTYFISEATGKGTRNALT
T2 sequence (C0HJB3 563-981 limits assumed): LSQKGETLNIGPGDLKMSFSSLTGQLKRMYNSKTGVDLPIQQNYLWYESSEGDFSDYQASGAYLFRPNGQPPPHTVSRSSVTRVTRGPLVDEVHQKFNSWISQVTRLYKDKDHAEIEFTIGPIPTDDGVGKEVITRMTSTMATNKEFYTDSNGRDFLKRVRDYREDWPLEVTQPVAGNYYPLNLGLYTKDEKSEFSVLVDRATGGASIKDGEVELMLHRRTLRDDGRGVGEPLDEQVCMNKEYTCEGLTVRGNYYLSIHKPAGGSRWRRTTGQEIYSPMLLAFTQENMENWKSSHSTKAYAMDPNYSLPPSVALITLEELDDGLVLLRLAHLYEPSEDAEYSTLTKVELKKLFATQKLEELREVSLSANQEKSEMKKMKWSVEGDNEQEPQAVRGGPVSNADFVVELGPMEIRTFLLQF

[5] = molecular target: T2, ALPHA MANNOSIDASE; experiment: Alpha mannosidase inhibition, pH 7.4; details: for inhibition at 1000 µM: @ 1 mM; for inhibition at 5000 µM: @ 5 mM

T1 sequence (P53341 whole entry): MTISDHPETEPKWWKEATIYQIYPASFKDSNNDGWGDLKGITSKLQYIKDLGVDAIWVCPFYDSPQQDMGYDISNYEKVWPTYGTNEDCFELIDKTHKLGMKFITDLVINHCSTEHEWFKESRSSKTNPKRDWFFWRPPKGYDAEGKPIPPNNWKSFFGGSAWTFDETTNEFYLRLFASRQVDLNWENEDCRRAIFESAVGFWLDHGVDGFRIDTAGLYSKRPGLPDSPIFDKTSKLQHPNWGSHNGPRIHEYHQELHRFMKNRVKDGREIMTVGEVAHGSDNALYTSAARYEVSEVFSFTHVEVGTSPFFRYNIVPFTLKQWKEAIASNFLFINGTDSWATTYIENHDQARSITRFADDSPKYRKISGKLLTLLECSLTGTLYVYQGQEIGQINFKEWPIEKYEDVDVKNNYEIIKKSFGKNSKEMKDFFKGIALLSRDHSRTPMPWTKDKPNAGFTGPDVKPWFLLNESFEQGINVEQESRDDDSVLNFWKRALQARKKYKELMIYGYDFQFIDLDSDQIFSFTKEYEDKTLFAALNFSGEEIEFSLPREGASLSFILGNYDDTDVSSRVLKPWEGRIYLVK

OC[C@H]1NC[C@H](F)[C@@H](O)[C@@H]1O [Compound 1, 1,2-dideoxy-2-fluoronojirimycin]
inhibition at 1000 µM [1]: 24%
inhibition at 5000 µM [1]: 64%
BETA GLUCOSIDASE-pH 4.8 inhibition ([2]; @ 1 mM): 6%
BETA GLUCOSIDASE-pH 4.8 inhibition ([2]; @ 5 mM): 25%
BETA GLUCOSIDASE-pH 7.4 inhibition ([3]; @ 1 mM): 11%
BETA GLUCOSIDASE-pH 7.4 inhibition ([3]; @ 5 mM): 25%
inhibition at 1000 µM [4]: 4%
inhibition at 5000 µM [4]: 5%
inhibition at 1000 µM [5]: 19%
inhibition at 5000 µM [5]: 11%

CCCCN1C[C@H](F)[C@@H](O)[C@H](O)[C@H]1CO [Compound 2, N-butyl-1,2-dideoxy-2-fluoronojirimycin]
inhibition at 1000 µM [1]: 8%
inhibition at 5000 µM [1]: 13%
BETA GLUCOSIDASE-pH 4.8 inhibition ([2]; @ 1 mM): 2%
BETA GLUCOSIDASE-pH 4.8 inhibition ([2]; @ 5 mM): -6%
BETA GLUCOSIDASE-pH 7.4 inhibition ([3]; @ 1 mM): 4%
BETA GLUCOSIDASE-pH 7.4 inhibition ([3]; @ 5 mM): 11%
inhibition at 1000 µM [4]: 3%
inhibition at 5000 µM [4]: 5%
inhibition at 1000 µM [5]: 4%
inhibition at 5000 µM [5]: 12%
